In patent publication US20100197727A1, “Quinoline Derivatives as Antibacterial Agents” (priority 2005, published 2010):

Experiments:
Test in all cases: Microtitre plate assay, IC90 determination
Assay type in all cases: cell-based
Conditions in all cases: 90% inhibitory concentration for bacterial growth
[1] = system: Streptococcus pneumoniae (ATCC6305)
Experimental: (§1) The bacteria used in this study were grown overnight in flasks containing 100 ml Mueller-Hinton Broth (Becton Dickinson—cat. no. 275730) in sterile de-ionized water, with shaking, at 37° C. Stocks (0.5 ml/tube) were stored at −70° C. until use. Bacteria titrations were performed in microtiter plates and colony forming units (CFUs) were determined In general, an inoculum level of approximately 100 CFUs was used for susceptibility testing.
(§2) Flat-bottom, sterile 96-well plastic microtiter plates were filled with 180 μl of sterile deionized water, supplemented with 0.25% BSA. Subsequently, stock solutions (7.8× final test concentration) of compounds were added in 45 μl volumes in column 2. Serial five-fold dilutions (45 μl in 180 μl ) were made directly in the microtiter plates from column 2 to reach column 11. Untreated control samples with (column 1) and without (column 12) inoculum were included in each microtiter plate. Depending on the bacteria type, approximately 10 to 60 CFU per well of bacteria inoculum (100 TCID50), in a volume of 100 μl in 2.8× Mueller-Hinton broth medium, was added to the rows A to H, except column 12. The same volume of broth medium without inoculum was added to column 12 in row A to H. The cultures were incubated at 37° C. for 24 hours under a normal atmosphere (incubator with open air valve and continuous ventilation). At the end of incubation, one day after inoculation, the bacterial growth was quantitated fluorometrically. Therefore resazurin (0.6 mg/ml) was added in a volume of 20 μl to all wells 3 hours after inoculation, and the plates were re-incubated overnight. A change in colour from blue to pink indicated the growth of bacteria. The fluorescence was read in a computer-controlled fluorometer (Cytofluor Biosearch) at an excitation wavelength of 530 nm and an emission wavelength of 590 nm. The % growth inhibition achieved by the compounds was calculated according to standard methods. The IC90 (expressed in μg/ml) was defined as the 90% inhibitory concentration for bacterial growth.

[2] = system: methicilline resistant Staphylococcus aureus (MRSA) (a clinical isolate from the University of Antwerp)
Experimental: as §1, §2

[3] = system: Streptococcus pyogens (ATCC8668)
Experimental: as §1, §2

[4] = system: Enterococcus faecalis (ATCC14506)
Experimental: as §1, §2

[5] = system: Enterococcus faecalis (ATCC29212)
Experimental: as §1, §2

[6] = system: Staphylococcus aureus (ATCC43300)
Experimental: as §1, §2

[7] = system: Staphylococcus aureus (ATCC29213)
Experimental: as §1, §2

[8] = system: Listeria monocytogenes (ATCC49594)
Experimental: as §1, §2

[9] = system: Streptococcus mutans (ATCC33402)
Experimental: as §1, §2

[10] = system: Staphylococcus aureus (ATCC25923)
Experimental: as §1, §2

[11] = system: Bacillus subtilis (ATCC43639)
Experimental: as §1, §2

[12] = system: Pseudomonas aeruginosa (ATCC27853)
Experimental: as §1, §2

[13] = system: Escherichia coli (ATCC25922)
Experimental: as §1, §2

[14] = system: Escherichia coli (ATCC35218)
Experimental: as §1, §2

SMILES | IC90 SPN 6305 [1] [µg/mL] | IC90 SPY 8668 [3] [µg/mL] | IC90 EFA 29212 [5] [µg/mL] | IC90 STA 29213 [7] [µg/mL] | IC90 PAE 27853 [12] [µg/mL] | also measured
COc1nc2ccc(Br)cc2cc1C(c1ccccc1)C(O)(CC[N+](C)(C)C)c1ccccc1.[I-] (single isomer, unassigned) [Compound 10] | 16.3 | 1.3 | 5.8 | 14.5 |  | IC90 STA RMETH [2]: 8.2 µg/mL; IC90 EFA 14506 [4]: 12.9 µg/mL; IC90 STA 43300 [6]: 5.8 µg/mL; IC90 LMO 49594 [8]: 1.2 µg/mL; IC90 SMU 33402 [9]: 10.3 µg/mL; IC90 STA 25923 [10]: 11.5 µg/mL; IC90 BSU 43639 [11]: 10.3 µg/mL
COc1nc2ccc(Br)cc2cc1C(c1ccccc1)C(O)(CC[N+](C)(C)C)c1ccccc1.[I-] (single isomer, unassigned) [Compound 57] | 16.3 | 12.9 | 12.9 | 12.9 |  | IC90 STA RMETH [2]: 12.9 µg/mL; IC90 EFA 14506 [4]: 12.9 µg/mL; IC90 STA 43300 [6]: 12.9 µg/mL; IC90 LMO 49594 [8]: 2.6 µg/mL; IC90 SMU 33402 [9]: 12.9 µg/mL; IC90 STA 25923 [10]: 12.9 µg/mL; IC90 BSU 43639 [11]: 2.6 µg/mL
COc1nc2ccc(Br)cc2cc1C(c1ccccc1)C(O)(CC[N+](C)(C)C)c1cccc2ccccc12.[I-] (single isomer, unassigned) [Compound 121] | 3.5 | 3.5 | 2.8 | 0.4 | 13.9 | IC90 STA RMETH [2]: 2.2 µg/mL; IC90 EFA 14506 [4]: 2.8 µg/mL; IC90 ECO 25922 [13]: 12.4 µg/mL; IC90 STA 43300 [6]: 3.5 µg/mL; IC90 LMO 49594 [8]: 0.5 µg/mL; IC90 SMU 33402 [9]: 2.8 µg/mL; IC90 STA 25923 [10]: 2.2 µg/mL; IC90 BSU 43639 [11]: 2.8 µg/mL
CCCC[N+](C)(C)CCC(O)(c1cccc2ccccc12)C(c1ccccc1)c1cc2cc(Br)ccc2nc1OC.[I-] (single isomer, unassigned) [Compound C] |  |  |  | 0.4 |  | 
COc1nc2ccc(Br)cc2cc1C(c1ccccc1)C(O)(CCc1ccccc1)CC[N+](C)(C)C.[I-] (single isomer, unassigned) [Compound F] |  |  |  | 2.1 |  | 
COc1nc2ccc(Br)cc2cc1C(c1ccccc1)C(O)(CCC[N+](C)(C)C)c1cccc2ccccc12.[I-] (single isomer, unassigned) [Compound G] |  |  |  | 0.4 |  | 
COc1nc2ccc(Br)cc2cc1C(c1ccccc1)C(O)(CCCC[N+](C)(C)C)c1ccc2ccccc2c1.[I-] (single isomer, unassigned) [Compound H] |  |  |  | 0.5 |  | 
COc1nc2ccc(Br)cc2cc1C(c1ccccc1)C(O)(CCCC[N+](C)(C)C)c1ccccc1.[I-] (single isomer, unassigned) [Compound K] |  |  |  | 2.1 |  | 
CSc1nc2ccc(Br)cc2cc1C(c1ccccc1)C(O)(CCCC[N+](C)(C)C)c1ccccc1.[I-] (single isomer, unassigned) [Compound L] | 2.2 | 0.4 | 2.2 | 2.2 | 2.2 | IC90 ECO 35218 [14]: 11 µg/mL; IC90 LMO 49594 [8]: 2.2 µg/mL; IC90 SMU 33402 [9]: 0.4 µg/mL; IC90 BSU 43639 [11]: 2.2 µg/mL
COc1nc2ccc(Br)cc2cc1C(c1ccccc1)C(O)(CC[N+](C)(C)C)c1ccsc1.[I-] (single isomer, unassigned) [Compound M] | 8.34 | 8.34 |  | 1.7 |  | 
COc1nc2ccc(Br)cc2cc1C(c1ccc(Cl)cc1)C(O)(CC[N+](C)(C)C)c1ccccc1.[I-] (single isomer, unassigned) [Compound N] | 1.75 | 1.75 | 1.75 | 1.8 | 9.87 | IC90 ECO 35218 [14]: 17.55 µg/mL
COc1nc2ccc(Br)cc2cc1C(c1ccccc1)C(O)(CC[N+](C)(C)C)c1cccc(F)c1.[I-] (single isomer, unassigned) [Compound O] | 1.7 | 1.7 | 8.53 | 1.9 |  | 
COc1nc2ccc(Br)cc2cc1C(c1ccccc1)C(O)(CC[N+](C)(C)C)c1ccc2ccccc2c1.[I-] (single isomer, unassigned) [Compound Q] | 1.8 | 1.8 | 1.8 | 1.8 | 4.53 | 
COc1nc2ccc(Br)cc2cc1C(c1ccccc1)C(O)(CCC[N+](C)(C)C)c1ccc2ccccc2c1.[I-] (single isomer, unassigned) [Compound S] | 0.47 | 1.85 | 1.85 | 0.4 | 1.85 | 
CSc1nc2ccc(Br)cc2cc1C(c1ccccc1)C(O)(CC[N+](C)(C)C)c1ccccc1.[I-] (single isomer, unassigned) [Compound T] | 1.7 | 1.7 | 3.8 | 1.7 | 8.5 | 
COc1nc2ccc(Br)cc2cc1C(c1ccccc1)C(O)(CCCC[N+]1(C)CCCCC1)c1ccccc1.[I-] (single isomer, unassigned) [Compound U] | 2.09 | 1.86 | 1.86 | 1.9 | 9.33 | 
COc1nc2ccc(Br)cc2cc1C(c1ccccc1)C(O)(CCc1ccccc1)CC[N+](C)(C)C.[I-] (single isomer, unassigned) [E] |  |  |  | 2.1 |  | 
COc1nc2ccc(Br)cc2cc1C(c1ccccc1)C(O)(CCCC[N+](C)(C)C)c1ccc2ccccc2c1.[I-] (single isomer, unassigned) [I] |  |  |  | 2.9 |  | 
COc1nc2ccc(Br)cc2cc1C(c1ccccc1)C(O)(CCCC[N+](C)(C)C)c1ccccc1.[I-] (single isomer, unassigned) [J] |  |  |  | 2.1 |  | 
COc1nc2ccc(Br)cc2cc1C(c1ccccc1)C(O)(CCC[N+](C)(C)C)c1ccc2ccccc2c1.[I-] (single isomer, unassigned) [R] | 0.46 | 0.74 | 1.17 | 0.4 | 2.07 | IC90 ECO 35218 [14]: 9.27 µg/mL
